Read-outs that look alike come from different tables or passages of the source.
Tests used:
[1] = system: L. major; test: ChEMBL dataset of pIC50 values against L. major used for the RF model (Table S1); assay type: cell-based, Leishmania major; also: call rule not given here
Excerpt: From the ChEMBL database (https://www.ebi.ac.uk/chembl/, accessed on 10 January 2021), we selected a diverse set of 1085 structures that were initially classified according to their predicted activity against L. major.
Excluding these structures minimized the differences in activity values resulting from errors and differences in experimental protocols. […] Standardizer software [JChem, version 16.11.28 (2016), calculation module developed by ChemAxon, https://www.chemaxon.com/, accessed on 20 January 2021] was used to canonize all simplified molecular-input line-entry system (SMILES) codes. After duplicate structures were removed, those with higher pIC50 values were eliminated, facilitating the generation of more restrictive models.

[2] = system: L. major; design: method as in ChEMBL; conditions: ref ChEMBL, cited from earlier work
[3] = Active/Inactive class assigned to the ChEMBL pIC50 value for Random forest model construction, ref ChEMBL
[4] = ChemBL structures with pIC50 values used for Random forest model construction, L. major
[5] = Active/Inactive class assigned to ChemBL structures for Random forest model construction (Table S1)
[6] = ChemBL structures with pIC50 values used for Random forest model construction (Table S1)

For `CN(C)c1ccc(Nc2c3ccc(NC(=O)CCN4CCCC4)cc3nc3cc(NC(=O)CCN4CCCC4)ccc23)cc1` [CHEMBL336434], the Outcome [1, 3] is given as “Inactive” and the “pIC50 Value” [2, 4] is given as 4.90.
For `O=[N+]([O-])c1ccc(-c2nnc(N3CCOCC3)s2)o1` [CHEMBL365770], the Outcome [1, 3] is listed as “Active” and the “pIC50 Value” [2, 4] is listed as 5.28.
For `NC[C@@H]1O[C@H](O[C@H]2[C@@H](O)[C@H](O[C@@H]3[C@@H](O)[C@H](N)C[C@H](N)[C@H]3O[C@H]3O[C@H](CO)[C@@H](O)[C@H](O)[C@H]3N)O[C@@H]2CO)[C@H](N)[C@@H](O)[C@@H]1O` [CHEMBL370143], the Outcome [1, 3] is given as “Inactive” and the “pIC50 Value” [2, 4] is given as 4.00.
In the case of `CN1CCN(c2nnc(-c3ccc([N+](=O)[O-])s3)s2)CC1` [CHEMBL371217], the Outcome [1, 3] is listed as “Inactive” and the “pIC50 Value” [2, 4] is listed as 3.99.
For `CN1CCN(c2nnc(-c3ccc([N+](=O)[O-])o3)s2)CC1` [CHEMBL372024], the Outcome [1, 3] is given as “Active” and the “pIC50 Value” [2, 4] is given as 5.14.
In the case of `O=[N+]([O-])c1ccc(-c2nnc(N3CCCCC3)s2)o1` [CHEMBL372172], the Outcome [1, 5] is listed as “Active” and the “pIC50 Value” [2, 6] is listed as 5.49.
In the case of `COc1cc(C)c(-c2ccc(O)c3c2C[C@@H](C)N[C@@H]3C)c2cccc(O)c12` [CHEMBL375542], the Outcome [1, 3] is listed as “Inactive” and the “pIC50 Value” [2, 4] is listed as 4.44.
In the case of `Oc1ccc(-c2nc3ccccc3[nH]2)cc1` [CHEMBL377740], the Outcome [1, 5] is given as “Active” and the “pIC50 Value” [2, 6] is given as 5.36.
In the case of `COc1ccc(-c2nc3ccccc3[nH]2)cc1` [CHEMBL379179], the Outcome [1, 5] is listed as “Active” and the “pIC50 Value” [2, 6] is listed as 5.44.
For `c1ccc2[nH]c(-c3ccncc3)nc2c1` [CHEMBL379376], the Outcome [1, 5] is listed as “Active” and the “pIC50 Value” [2, 6] is listed as 5.35.
In the case of `O=[N+]([O-])c1ccc2nc(-c3ccccn3)[nH]c2c1` [CHEMBL380979], the Outcome [1, 5] is given as “Active” and the “pIC50 Value” [2, 6] is given as 5.52.
For `O=[N+]([O-])c1ccc(-c2nnc(N3CCN(c4ccccc4)CC3)s2)s1` [CHEMBL382933], the Outcome [1, 3] is listed as “Inactive” and the “pIC50 Value” [2, 4] is listed as 3.98.
In the case of `COc1cc(OC)c(-c2ccc(OC)c3c(OC)cc(C)cc23)c2c1C(C)=N[C@@H](C)C2` [CHEMBL390586], the Outcome [1, 3] is listed as “Inactive” and the “pIC50 Value” [2, 4] is listed as 4.00.
In the case of `CC(C)(C)OC(=O)N1CCN(c2cc(-c3ccc(Oc4ccccc4)cc3)n[nH]2)CC1` [CHEMBL394241], the Outcome [1, 3] is listed as “Inactive” and the “pIC50 Value” [2, 4] is listed as 4.89.
In the case of `C=C[C@@]1(C)CC2=C(C[C@H]1C(=C)C)C(=O)C=CC2=O` [CHEMBL401583], the Outcome [1, 3] is listed as “Inactive” and the “pIC50 Value” [2, 4] is listed as 4.06.
For `C=C1CCC[C@@]2(C)CC3=C(C[C@@H]12)C(=O)C=CC3=O` [CHEMBL401659], the Outcome [1, 3] is given as “Inactive” and the “pIC50 Value” [2, 4] is given as 4.99.
For `COc1cccc2c(-c3ccc4c(c3O)[C@@H](C)N[C@H](C)C4)c(C)cc(OC)c12` [CHEMBL410597], the Outcome [1, 3] is listed as “Inactive” and the “pIC50 Value” [2, 4] is listed as 4.33.
In the case of `CNc1ccc(Nc2c3ccccc3nc3ccccc23)cc1` [CHEMBL415467], the Outcome [1, 5] is listed as “Active” and the “pIC50 Value” [2, 6] is listed as 5.82.
In the case of `CCCCCCN(C)c1ccc(Nc2c3ccccc3nc3ccccc23)cc1` [CHEMBL415472], the Outcome [1, 5] is given as “Active” and the “pIC50 Value” [2, 6] is given as 6.52.
For `CCCCCCNc1ccc(Nc2c3ccc(Cl)cc3nc3ccc(OC)cc23)cc1` [CHEMBL420434], the Outcome [1, 5] is listed as “Active” and the “pIC50 Value” [2, 6] is listed as 6.70.
For `COc1cc2c(c(OC)c1)C(C)=[N+](c1ccc3cc(C)cc(OC)c3c1O)[C@@H](C)C2.O=C([O-])C(F)(F)F` [CHEMBL426747], the Outcome [1, 5] is given as “Active” and the “pIC50 Value” [2, 6] is given as 5.91.
In the case of `COc1ccc(/C=C/C(=O)c2ccc(O)cc2)c(OC)c1` [CHEMBL434066], the Outcome [1, 5] is listed as “Active” and the “pIC50 Value” [2, 6] is listed as 5.40.
In the case of `CNc1ccc(Nc2c3ccccc3nc3ccccc23)cc1OC(C)C` [CHEMBL439951], the Outcome [1, 5] is listed as “Active” and the “pIC50 Value” [2, 6] is listed as 5.89.
For `C=C[C@@]1(C)Cc2c(OC(C)=O)ccc(OC(C)=O)c2C[C@H]1C(=C)C` [CHEMBL442439], the Outcome [1, 5] is given as “Active” and the “pIC50 Value” [2, 6] is given as 5.37.
In the case of `O=[N+]([O-])c1ccc(-c2nnc(N3CCN(c4ccccc4)CC3)s2)o1` [CHEMBL448103], the Outcome [1, 5] is listed as “Active” and the “pIC50 Value” [2, 6] is listed as 7.00.
In the case of `CO[C@H]1C[C@@H](C)[C@H]2[C@H](C[C@@]3(C)[C@@H]4C[C@H](O)[C@H]5C(C)(C)[C@@H](O[C@@H]6OC[C@@H](O)[C@@H](O)[C@H]6O)CC[C@@]56C[C@@]46CC[C@]23C)O1` [CHEMBL450438], the Outcome [1, 3] is given as “Inactive” and the “pIC50 Value” [2, 4] is given as 4.03.
For `C=C[C@H](/C=C\c1ccc(O)cc1)c1ccc(O)cc1` [CHEMBL451713], the Outcome [1, 3] is listed as “Inactive” and the “pIC50 Value” [2, 4] is listed as 4.92.
In the case of `COCCOC(=O)C1=C(C)NC(C)=C(C(=O)OC/C=C/c2ccccc2)C1c1cccc([N+](=O)[O-])c1` (stereo not shown) [CHEMBL452076], the Outcome [1, 3] is given as “Inactive” and the “pIC50 Value” [2, 4] is given as 4.67.
In the case of `C/C=C/C1=C(OC)C(=O)C(OC)=C(OC)C1=O` [CHEMBL454996], the Outcome [1, 3] is listed as “Inactive” and the “pIC50 Value” [2, 4] is listed as 4.14.
In the case of `C[C@@H]1CC[C@@]2(OC1)O[C@H]1C[C@H]3C4=CCC5=CC(=O)[C@@H](O)C[C@]5(C)[C@H]4C[C@H](O)[C@]3(C)[C@H]1[C@@H]2C` [CHEMBL455616], the Outcome [1, 3] is listed as “Inactive” and the “pIC50 Value” [2, 4] is listed as 4.15.
For `O=C(c1ccccc1Cl)N1CCN(c2nnc(-c3ccc([N+](=O)[O-])o3)s2)CC1` [CHEMBL458179], the Outcome [1, 3] is listed as “Inactive” and the “pIC50 Value” [2, 4] is listed as 4.97.
In the case of `O=C(c1cccc(Cl)c1)N1CCN(c2nnc(-c3ccc([N+](=O)[O-])o3)s2)CC1` [CHEMBL458527], the Outcome [1, 3] is given as “Inactive” and the “pIC50 Value” [2, 4] is given as 4.88.
For `O=C(c1ccc(Cl)cc1)N1CCN(c2nnc(-c3ccc([N+](=O)[O-])o3)s2)CC1` [CHEMBL458528], the Outcome [1, 3] is given as “Inactive” and the “pIC50 Value” [2, 4] is given as 4.58.
In the case of `O=C(c1cccs1)N1CCN(c2nnc(-c3ccc([N+](=O)[O-])o3)s2)CC1` [CHEMBL458529], the Outcome [1, 3] is given as “Inactive” and the “pIC50 Value” [2, 4] is given as 4.72.
In the case of `O=C(c1ccc(Br)s1)N1CCN(c2nnc(-c3ccc([N+](=O)[O-])o3)s2)CC1` [CHEMBL458771], the Outcome [1, 3] is given as “Inactive” and the “pIC50 Value” [2, 4] is given as 4.88.
In the case of `O=C(c1ccccc1Cl)N1CCN(c2nnc(-c3ccc([N+](=O)[O-])s3)s2)CC1` [CHEMBL458772], the Outcome [1, 3] is given as “Inactive” and the “pIC50 Value” [2, 4] is given as 4.46.
In the case of `O=C(c1cccc(Cl)c1)N1CCN(c2nnc(-c3ccc([N+](=O)[O-])s3)s2)CC1` [CHEMBL458778], the Outcome [1, 3] is given as “Inactive” and the “pIC50 Value” [2, 4] is given as 4.30.
For `O=C(c1cccs1)N1CCN(c2nnc(-c3ccc([N+](=O)[O-])s3)s2)CC1` [CHEMBL464864], the Outcome [1, 3] is listed as “Inactive” and the “pIC50 Value” [2, 4] is listed as 4.55.
In the case of `O=C(c1ccc(Cl)s1)N1CCN(c2nnc(-c3ccc([N+](=O)[O-])s3)s2)CC1` [CHEMBL464870], the Outcome [1, 3] is listed as “Inactive” and the “pIC50 Value” [2, 4] is listed as 4.62.
In the case of `Cc1cccc2oc(=O)c3c(c12)O[C@@H](C)[C@@]3(C)CC(=O)[C@@H]1OC1(C)C` [CHEMBL465559], the Outcome [1, 3] is listed as “Inactive” and the “pIC50 Value” [2, 4] is listed as 4.43.
For `Clc1ccccc1-c1nc2ccccc2[nH]1` [CHEMBL473162], the Outcome [1, 5] is given as “Active” and the “pIC50 Value” [2, 6] is given as 5.47.
For `Clc1ccc(-c2nc3ccccc3[nH]2)cc1` [CHEMBL473163], the Outcome [1, 5] is given as “Active” and the “pIC50 Value” [2, 6] is given as 5.50.
In the case of `O=[N+]([O-])c1ccc(-c2nc3ccccc3[nH]2)cc1` [CHEMBL473361], the Outcome [1, 5] is listed as “Active” and the “pIC50 Value” [2, 6] is listed as 5.53.
In the case of `COc1cc(OC)c2c(C)[n+](-c3cccc4c3C(=O)c3ccccc3C4=O)c(C)cc2c1.F[B-](F)(F)F` [CHEMBL474599], the Outcome [1, 3] is given as “Inactive” and the “pIC50 Value” [2, 4] is given as 4.00.
